Data: patent US20090203731A1, “TREATMENT OF DEPRESSION AND OTHER AFFECTIVE DISORDERS” (H. Lundbeck A/S, priority 2003, published 2009)

Assays:
Format in all cases: in vivo
[1] = system: forced swimming-induced immobility in mice; test: mouse forced swim test (inhibition of forced swimming-induced immobility); conditions: male NMRI/BOM mice
Text: (§1) In order to modulate the activity of systems responsible for antidepressant activity, we have characterized the interaction between gaboxadol and escitalopram (an SSRI) in a behavioral model of serotonin reuptake inhibition, i.e. the mouse 5-HTP potentiation test, and a model that is predictive of antidepressant activity, i.e. the mouse forced swim test (cf. C. Sánchez et al., 2003, Psychopharmacology 167, 353-362).
(§2) Male NMRI/BOM mice (18-25 g; Bomholtgaard, Denmark) were used. The mice were housed in plastic cages (35×30×12 cm), 10 animals in each, and habituated to the animal facilities for at least a week before test. The room temperature (21±2° C.), relative humidity (55±5%), and air exchange (16 times per h) were automatically controlled. The animals had free access to commercial food pellets and tap water before test.
A mouse that is forced to swim in a spatially constrained container will exert a characteristic immobile posture. Pretreatment with an antidepressant will counteract this effect. The test was conducted as described in detail by Sánchez and Meier (Psychopharmacol. 129, 197-205, 1997). Briefly, a fully automated test system with 6 swim units (2000 ml glass jars filled with 1200 ml soiled water (23-25° C.) in which a mouse had been placed previously) was used. […] The accumulated duration of immobility was measured during the last 3 min. […]

[2] = system: rat chronic mild stress (CMS) model of depression; test: rat chronic mild stress (CMS) model of depression, sucrose consumption; conditions: male Wistar rats
Text: The rat chronic mild stress (CMS) model of depression has a high degree of predictive validity for antidepressant activity (Willner, 1997, Psychopharmacol. 134, 319-329). Furthermore, the procedure is an appropriate model to study onset of antidepressant action in animals (C. Sánchez et al., 2003, Behavioural Pharmacology 14, 465-470). The principle of the model is based on the relation between stress and affective disorders. Rats exposed to chronic stress will show a reduced sensitivity to rewards (e.g. a palatable sucrose solution).
Male Wistar rats (Gorzkowska, Warsaw) were brought into the laboratory two months before the start of the experiment. The animals were singly housed with food and water freely available, and maintained on a 12-h light/dark cycle at a temperature of 22±2° C., except as described below.
The animals were first trained to consume a 1% sucrose solution; training consisted of eight 1 h baseline tests in which sucrose was presented, in the home cage, following 14 h food and water deprivation; intake was measured by weighing pre-weighed bottles containing the sucrose solution, at the end of the test. Subsequently, sucrose consumption was monitored, under similar conditions, throughout the whole experiment. […] Body weights were assessed a baseline and by the end of drug treatment.

[3] = system: 5-HTP-induced behaviour in mice; test: mouse 5-HTP potentiation test (potentiation of 5-HTP-induced behaviour); conditions: gaboxadol 2.5 mg/kg with escitalopram 0.5 to 0.025 mg/kg, s.c., 30 min before i.v. 5-HTP 100 mg/kg, male NMRI/BOM mice
Text: as §1, §2
The test procedure for studies in mice is described in detail by Hyttel et al., 1992, J. Neural. Transm. Gen. Sect. 88, 157-60. Briefly, 30 min after subcutaneous (s.c.) administration of test compound, mice were given intravenous (i.v.) 5-HTP (100 mg/kg). Thereafter the animals were evaluated in their home cage during a 15-min observation period with respect to stereotypy (lateral head movements), tremor, and hind limb abduction. One point was given for each symptom being present. A total of 8-16 mice were used per dose. Inhibition of forced swimming-induced immobility.

With `Oc1noc2c1CCNC2` [gaboxadol, Gaboxadol] the “activity by itself in the forced swim test” value ([1]; gaboxadol 2.5 mg/kg alone, 30 min before test) was “not active by itself”, the “potentiation of the antidepressant-like effect of escitalopram in the forced swim test” value ([1]; gaboxadol 2.5 mg/kg with escitalopram 2.5 and 5 mg/kg) was “potentiated the antidepressant-like effect of escitalopram (2.5 and 5 mg/kg) significantly” and the “effect in the rat chronic mild stress model at 2.5 mg/kg per day” value ([2]; 2.5 mg/kg per day, intraperitoneal) was “clear and significant effect”. For the same compound, the “anti-depressant-like effect in the rat chronic mild stress model” value ([2]; twice daily intraperitoneal injections for five weeks) was “significant anti-depressant-like effect” and the “potentiation of the acute effects of escitalopram in the 5-HTP potentiation test” value [3] was “strongly potentiated the acute effects of escitalopram”.
